Publication PMC2533715, “Suppressive Effects of Selected Food Phytochemicals on CD74 Expression in NCI-N87 Gastric Carcinoma Cells” (Journal of Clinical Biochemistry and Nutrition, 2008)

How the values were obtained:
[1] = tested on: H. pylori-induced gastritis; set-up: method as in PMID 14550260; conditions: Mongolian gerbils; cited from earlier work
Cell viability (MTT) = conditions: human
CD74 = test: Cell-based ELISA for constitutive CD74 expression; set-up: species or system human; conditions: 48 h, NCI-N87 cells; for IR (%) inhibition rate of CD74 expression: mean ± average deviation; for IC50: mean of duplicate experiments, unit printed in b25 only, read-out: IC50 (50% inhibitory concentration) for constitutive CD74 expression
H. pylori urease = tested on: H. pylori urease; set-up: method as in PMID 14550260; conditions: in vitro; cited from earlier work
CYP1A1 = tested on: CYP1A1; set-up: method as in PMID 15670584; conditions: cited from earlier work
[2] = tested on: cytochrome P450 (CYP) 3A4; set-up: method as in PMID 9548795; conditions: cited from earlier work
leukemia differentiation = tested on: leukemia differentiation; set-up: method as in PMID 10552768; conditions: cited from earlier work
skin tumors = tested on: skin tumors; set-up: method as in PMID 9276625; conditions: mice; cited from earlier work
NO generation = tested on: NO generation; set-up: method as in PMID 10563895; conditions: cited from earlier work
MCF-7 cells = tested on: MCF-7 cells; set-up: method as in PMID 12641443; conditions: induced by benzo[a]pyrene and 7,12-dimethylbenz[a]anthracene; cited from earlier work
[3] = NCI-N87 gastric carcinoma cells

SMILES	H. pylori-induced gastritis [1]	CC50 at 48 h (Cell viability (MTT)) [µM]	viability at 48 h, 4 µM (Cell viability (MTT); [3]) [%]	viability at 48 h, 20 µM (Cell viability (MTT); [3]) [%]	viability at 48 h, 100 µM (Cell viability (MTT); [3]) [%]	IR (%) inhibition rate of CD74 expression (CD74; 4 µM) [%]	IR (%) inhibition rate of CD74 expression (CD74; 20 µM) [%]	IR (%) inhibition rate of CD74 expression (CD74; 100 µM) [%]	Suppression of CD74 expression (in words) (CD74)	IC50 (CD74) [µM]	H. pylori urease activity (H. pylori urease)	Inhibition of CYP1A1 (CYP1A1)	CC50 at 48 h (Cell viability (MTT); [3]) [µM]	IR (%) inhibition rate of CD74 expression (CD74; 20 µM, listed as bergamottin) [%]	Inhibition of cytochrome P450 (CYP) 3A4 [2]	Leukemia differentiation (leukemia differentiation)	Skin tumors (skin tumors)	NO generation (NO generation)	Formation of DNA adducts (MCF-7 cells)
O=C(OC1Cc2c(O)cc(O)cc2OC1c1cc(O)c(O)c(O)c1)c1cc(O)c(O)c(O)c1 (single isomer, unassigned; (-)) [EGCG, (−)-epigallocatechin-3-gallate]	suppressed	> 100	78 ± 6.3	77 ± 3.1	78 ± 5	−110 ± 8.3	−149 ± 3.8	−217 ± 4.0	did not suppress CD74 expression, but rather enhanced it	> 100	strongly inhibited								
CC(C)=CCC/C(C)=C/COc1c2ccoc2cc2oc(=O)ccc12 [Bergamottin]			93	79	59 ± 2.1	8.6 ± 4.2	74 ± 8.2		significant activity	14.2		inhibit	> 100	74	inhibit	induced	reduced	reduced	reduced
